System: Giardia lamblia (WB strain) trophozoites
Test: Growth of Giardia lamblia trophozoites during 24 hr and 48 hr incubation in vitro (live and dead counts)
Format: cell-based
Details: for Reduction of live trophozoites compared to control cultures: 48 hr incubation, n=3
Description: Methods for Evaluating the Effect of Ganglioside Enriched Preparation and Ganglioside Fractions on Growth of Giardia lamblia Trophozoites in vitro. The following method was used for preparation of culture medium containing ganglioside. A preparation containing gangliosides was vortexed and sonicated (Sonic 300 Dismembrator™, Artek System Corp.) in 10 ml of TYI-S-33 culture medium, and further diluted by adding 990 ml of culture medium. This stock culture medium containing a known concentration of gangliosides was filtered in succession through Whatman™ No. 1 filter paper, 0.8 μm, 0.45 μm (Milli-Fil-P.F.™ Millipore Corp.), and 0.22 μm (Sterivex-GS™ filters with filling bell, Millipore Corp) filters connected to a peristaltic pump. This stock solution was kept at −30° C. and was diluted on the day of inoculation.
G. lamblia (WB strain) trophozoites were cultured in Diamond's TYI-S-33 (Diamond et al., 1978.). G. lamblia trophozoites (5×10^5) were inoculated in 12.5 cm^2 tissue culture flasks in the total volume of […]. Nutrient stock solution containing gangliosides was diluted to provide a concentration of ganglioside (as N-Acetyl neuraminic acid amounts, NANA) at 0 (control), 0.001, 0.01, 1, 2, and 4 μg/ml. The cultures were incubated for 24 and 48 hr at 37° C. in 5% CO2, and the number of live and dead (no flagellar movement) trophozoites determined using a hemocytometer.
The following method was used for preparation of culture medium containing ganglioside fraction. Total lipids were extracted from the ganglioside enriched preparation using the Folch method (Folch et al., 1957). The ganglioside containing upper phase was transferred and the lower phase was washed once with Folch upper phase solution (chloroform/methanol/water, 3/48/47 by vol.). The combined ganglioside containing fractions were passed through Sep-Pak™ C18 reverse-phase cartridges (Waters Corporation, Milford, Mass., USA), eluted with methanol and chloroform and methanol 2:1 (v/v), and dried completely under vacuum at 23° C. using a rotary evaporator (Williams et al., 1980). Ganglioside (NANA) content was measured as described by Suzuki (1964). Gangliosides were then diluted using the culture medium and filtered as described above.
G. lamblia trophozoites (5×10^5) were incubated for 24 hr and 48 hr with ganglioside fraction at the concentration of 0 (control), 4, 8, 10, 12, 14, 16 and 20 μg/ml in 12.5 cm^2 tissue culture flasks as described above.
In vitro. This study was performed to determine if Fraction A is directly toxic to the parasite. Several dilutions of Fraction A was added to the media at the concentration of 0, 0.001, 0.01, 0, 1, 1, 2, and 4 ug/ml and incubated for 24 hours and 48 hours after inoculation with 500,000 Giardia lamblia trophozoites. […]

Question: II^(NeuAc)2-LacCer [GD3] was tested. Which “Reduction of live trophozoites compared to control cultures” value (10 μg/ml (NANA)) did it give?
Answer: Its value is 25%.

Question: And the “Reduction of live trophozoites compared to control cultures” value (20 μg/ml (NANA))?
Answer: The value was 55%.

Question: What about the “Live trophozoites as a percent of control versus concentration” value (48 hour incubation, in words (FIG. 12)) of the same substance?
Answer: Its value is “decrease as a percent of control in a dose-dependent manner”.

Question: And the “Dead trophozoites as a percentage of live trophozoites versus concentration” value (48 hour incubation, in words (FIG. 13))?
Answer: The value was “increase as a percentage of live trophozoites”.

Reference: patent publication US6998392B2, “Formulation to treat or prevent parasitic infection” (MTI Meta Tech Inc., priority 2003, dated 2006)
